Each structure is given as a SMILES string.

Common to all, as to assay: Weeding effect in post-emergence stage
What all share (format): in vivo
Holding throughout (details): Dose 15 g/ha; level of fresh weight growth control rate

One test has as its system Echinochloa crusgalli. The procedure, abridged: (§1)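 Doses of 500, 250, 125, 60, 30, 15 and 7.5 g/ha, with methyl oleate synergist (1.5 liter/ha) and Tween 80 from acetone solution, applied by spray tower post-emergence (2–3 leaf stage). Weed control scored after 3 further greenhouse weeks, averaged over triplicates.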
In another test the test system is Alopecurus japonicus. The procedure, abridged:
as §1

In the next test the test system is Eleusine indica. The procedure, abridged: as §1
The next test deals with Setaria viridis. The procedure, abridged:
as §1

Another test concerns Digitaria sanguinalis. The procedure, abridged: as §1
The subject of the next test is Abutilon theophrasti. The procedure, abridged:
as §1

Take `CCOC(=O)[C@@H](C)O/N=C/c1cc(-n2c(=O)n(C)c(=S)n(C)c2=O)c(F)cc1C(F)(F)F` [86(R)]: the “Weeding effect in post-emergence stage, Echinochloa crusgalli” value (“Weeding effect … Echinochloa crusgalli” below) in the test with Echinochloa crusgalli is 4 (Level 4: growth control rate is greater than or equal to 60% and less than 85%). Besides, the “Weeding effect in post-emergence stage, Alopecurus japonicus” value (“Weeding effect … Alopecurus japonicus” below) with Alopecurus japonicus is 3 (Level 3: growth control rate is greater than or equal to 40% and less than 60%). In the test with Eleusine indica, the “Weeding effect in post-emergence stage, Eleusine indica” value (shortened to “Weeding effect … Eleusine indica”) was 5 (Level 5: growth control rate is above 85%). Further, the “Weeding effect in post-emergence stage, Setaria viridis” value (“Weeding effect … Setaria viridis” below) in the test on Setaria viridis is 4 (Level 4: growth control rate is greater than or equal to 60% and less than 85%). Also, in the test with Digitaria sanguinalis, the “Weeding effect in post-emergence stage, Digitaria sanguinalis” value (from here on “Weeding effect … Digitaria sanguinalis”) was 3 (Level 3: growth control rate is greater than or equal to 40% and less than 60%). Moreover, the “Weeding effect in post-emergence stage, Abutilon theophrasti” value (“Weeding effect … Abutilon theophrasti” for short) in the test with Abutilon theophrasti is reported as 5 (Level 5: growth control rate is above 85%).
Consider `COC(=O)[C@@H](C)O/N=C/c1cc(-n2c(=O)n(C)c(=S)n(C)c2=O)c(F)cc1C#N` [87(R)], for which the “Weeding effect … Echinochloa crusgalli” value with Echinochloa crusgalli is 5 (Level 5: growth control rate is above 85%). Also, the “Weeding effect … Alopecurus japonicus” value in the test on Alopecurus japonicus is 5 (Level 5: growth control rate is above 85%). For the same molecule, the “Weeding effect … Eleusine indica” value in the test with Eleusine indica is listed as 5 (Level 5: growth control rate is above 85%). For the same molecule, in the test on Setaria viridis, the “Weeding effect … Setaria viridis” value is 5 (Level 5: growth control rate is above 85%). The “Weeding effect … Digitaria sanguinalis” value in the test on Digitaria sanguinalis is recorded as 5 (Level 5: growth control rate is above 85%). Also, in the test with Abutilon theophrasti, the “Weeding effect … Abutilon theophrasti” value is 5 (Level 5: growth control rate is above 85%).
With `CCOC(=O)[C@@H](C)O/N=C/c1cc(-n2c(=O)n(C)c(=S)n(C)c2=O)c(F)cc1C#N` [88(R)], the “Weeding effect … Echinochloa crusgalli” value in the test with Echinochloa crusgalli is given as 5 (Level 5: growth control rate is above 85%). In addition, the “Weeding effect … Alopecurus japonicus” value in the test on Alopecurus japonicus is recorded as 5 (Level 5: growth control rate is above 85%). Also, the “Weeding effect … Eleusine indica” value with Eleusine indica was 5 (Level 5: growth control rate is above 85%). Besides, the “Weeding effect … Setaria viridis” value with Setaria viridis is listed as 5 (Level 5: growth control rate is above 85%). The “Weeding effect … Digitaria sanguinalis” value in the test on Digitaria sanguinalis is given as 5 (Level 5: growth control rate is above 85%). In addition, the “Weeding effect … Abutilon theophrasti” value in the test with Abutilon theophrasti is 5 (Level 5: growth control rate is above 85%).
For the molecule `COC(=O)[C@@H](C)O/N=C/c1cc(-n2c(=O)n(C)c(=S)n(C)c2=S)c(F)cc1Cl` [124(R)], the “Weeding effect … Echinochloa crusgalli” value in the test with Echinochloa crusgalli is listed as 5 (Level 5: growth control rate is above 85%). Moreover, in the test with Alopecurus japonicus, the “Weeding effect … Alopecurus japonicus” value is on record as 5 (Level 5: growth control rate is above 85%). Moreover, the “Weeding effect … Eleusine indica” value with Eleusine indica is on record as 5 (Level 5: growth control rate is above 85%). Also, the “Weeding effect … Setaria viridis” value with Setaria viridis was 5 (Level 5: growth control rate is above 85%). The “Weeding effect … Digitaria sanguinalis” value in the test on Digitaria sanguinalis is recorded as 5 (Level 5: growth control rate is above 85%). Moreover, the “Weeding effect … Abutilon theophrasti” value with Abutilon theophrasti is 5 (Level 5: growth control rate is above 85%).
`CCOC(=O)[C@@H](C)O/N=C/c1cc(-n2c(=O)n(C)c(=S)n(C)c2=S)c(F)cc1Br` [161(R)]: in the test with Echinochloa crusgalli, the “Weeding effect … Echinochloa crusgalli” value was 5 (Level 5: growth control rate is above 85%). The “Weeding effect … Alopecurus japonicus” value in the test on Alopecurus japonicus is 4 (Level 4: growth control rate is greater than or equal to 60% and less than 85%). In addition, the “Weeding effect … Eleusine indica” value with Eleusine indica is listed as 5 (Level 5: growth control rate is above 85%). Besides, in the test on Setaria viridis, the “Weeding effect … Setaria viridis” value is given as 5 (Level 5: growth control rate is above 85%). For the same molecule, the “Weeding effect … Digitaria sanguinalis” value with Digitaria sanguinalis was 4 (Level 4: growth control rate is greater than or equal to 60% and less than 85%). Besides, the “Weeding effect … Abutilon theophrasti” value in the test on Abutilon theophrasti is listed as 5 (Level 5: growth control rate is above 85%).
With `COC(=O)[C@@H](C)O/N=C/c1cc(-n2c(=O)n(C)c(=O)n(C)c2=O)c(F)cc1Cl` [164(R)], the “Weeding effect … Echinochloa crusgalli” value in the test on Echinochloa crusgalli was 5 (Level 5: growth control rate is above 85%). For the same molecule, the “Weeding effect … Alopecurus japonicus” value in the test with Alopecurus japonicus is reported as 5 (Level 5: growth control rate is above 85%). Besides, the “Weeding effect … Eleusine indica” value in the test with Eleusine indica is given as 5 (Level 5: growth control rate is above 85%). Also, in the test with Setaria viridis, the “Weeding effect … Setaria viridis” value was 5 (Level 5: growth control rate is above 85%). In addition, the “Weeding effect … Digitaria sanguinalis” value in the test with Digitaria sanguinalis is 5 (Level 5: growth control rate is above 85%). Besides, the “Weeding effect … Abutilon theophrasti” value with Abutilon theophrasti is recorded as 5 (Level 5: growth control rate is above 85%).
Turning to `CCSC(=O)[C@@H](C)O/N=C/c1cc(-n2c(=O)n(C)c(=S)n(C)c2=O)c(F)cc1Cl` [168(R)], the “Weeding effect … Echinochloa crusgalli” value in the test with Echinochloa crusgalli is on record as 5 (Level 5: growth control rate is above 85%). For the same molecule, in the test on Alopecurus japonicus, the “Weeding effect … Alopecurus japonicus” value was 5 (Level 5: growth control rate is above 85%). Moreover, the “Weeding effect … Eleusine indica” value with Eleusine indica is 5 (Level 5: growth control rate is above 85%). For the same molecule, in the test with Setaria viridis, the “Weeding effect … Setaria viridis” value is given as 5 (Level 5: growth control rate is above 85%). Moreover, the “Weeding effect … Digitaria sanguinalis” value in the test on Digitaria sanguinalis was 5 (Level 5: growth control rate is above 85%). Further, the “Weeding effect … Abutilon theophrasti” value with Abutilon theophrasti is on record as 5 (Level 5: growth control rate is above 85%).
For the molecule `COC(=O)CCNC(=O)[C@@H](C)O/N=C/c1cc(-n2c(=O)n(C)c(=S)n(C)c2=O)c(F)cc1Cl` [183(R)], the “Weeding effect … Echinochloa crusgalli” value with Echinochloa crusgalli is on record as 5 (Level 5: growth control rate is above 85%). Further, the “Weeding effect … Alopecurus japonicus” value in the test with Alopecurus japonicus is reported as 5 (Level 5: growth control rate is above 85%). The “Weeding effect … Eleusine indica” value with Eleusine indica is on record as 5 (Level 5: growth control rate is above 85%). Also, the “Weeding effect … Setaria viridis” value in the test on Setaria viridis is given as 5 (Level 5: growth control rate is above 85%). Moreover, in the test on Digitaria sanguinalis, the “Weeding effect … Digitaria sanguinalis” value is recorded as 5 (Level 5: growth control rate is above 85%). Also, the “Weeding effect … Abutilon theophrasti” value in the test with Abutilon theophrasti is 5 (Level 5: growth control rate is above 85%).
As to `C[C@@H](O/N=C/c1cc(-n2c(=O)cc(C(F)(F)F)n(C)c2=O)c(F)cc1Cl)C(=O)O` [193(R)], in the test with Echinochloa crusgalli, the “Weeding effect … Echinochloa crusgalli” value is 5 (Level 5: growth control rate is above 85%). The “Weeding effect … Alopecurus japonicus” value in the test with Alopecurus japonicus is given as 5 (Level 5: growth control rate is above 85%). In the test with Eleusine indica, the “Weeding effect … Eleusine indica” value is reported as 5 (Level 5: growth control rate is above 85%). Besides, the “Weeding effect … Setaria viridis” value in the test with Setaria viridis is 5 (Level 5: growth control rate is above 85%). For the same molecule, in the test with Digitaria sanguinalis, the “Weeding effect … Digitaria sanguinalis” value is reported as 5 (Level 5: growth control rate is above 85%). In the test on Abutilon theophrasti, the “Weeding effect … Abutilon theophrasti” value is 5 (Level 5: growth control rate is above 85%).
In the case of `CCCCOC(=O)[C@@H](C)O/N=C/c1cc(-n2c(=O)cc(C(F)(F)F)n(C)c2=O)c(F)cc1Cl` [200(R)], the “Weeding effect … Echinochloa crusgalli” value with Echinochloa crusgalli is 5 (Level 5: growth control rate is above 85%). In addition, the “Weeding effect … Alopecurus japonicus” value in the test with Alopecurus japonicus is given as 5 (Level 5: growth control rate is above 85%). Besides, the “Weeding effect … Eleusine indica” value with Eleusine indica is 5 (Level 5: growth control rate is above 85%). Moreover, in the test on Setaria viridis, the “Weeding effect … Setaria viridis” value is recorded as 5 (Level 5: growth control rate is above 85%). Further, the “Weeding effect … Digitaria sanguinalis” value with Digitaria sanguinalis was 5 (Level 5: growth control rate is above 85%). Moreover, in the test on Abutilon theophrasti, the “Weeding effect … Abutilon theophrasti” value is reported as 5 (Level 5: growth control rate is above 85%).
`CC(C)COC(=O)[C@@H](C)O/N=C/c1cc(-n2c(=O)cc(C(F)(F)F)n(C)c2=O)c(F)cc1Cl` [201(R)]: the “Weeding effect … Echinochloa crusgalli” value in the test on Echinochloa crusgalli was 5 (Level 5: growth control rate is above 85%). Further, the “Weeding effect … Alopecurus japonicus” value in the test on Alopecurus japonicus was 5 (Level 5: growth control rate is above 85%). In addition, in the test on Eleusine indica, the “Weeding effect … Eleusine indica” value is on record as 5 (Level 5: growth control rate is above 85%). In addition, the “Weeding effect … Setaria viridis” value with Setaria viridis was 5 (Level 5: growth control rate is above 85%). In the test with Digitaria sanguinalis, the “Weeding effect … Digitaria sanguinalis” value was 5 (Level 5: growth control rate is above 85%). Also, the “Weeding effect … Abutilon theophrasti” value with Abutilon theophrasti is 5 (Level 5: growth control rate is above 85%).
With `C[C@@H](O/N=C/c1cc(-n2c(=O)cc(C(F)(F)F)n(C)c2=O)c(F)cc1Cl)C(=O)OC(C)(C)C` [202(R)], the “Weeding effect … Echinochloa crusgalli” value with Echinochloa crusgalli is 5 (Level 5: growth control rate is above 85%). Further, the “Weeding effect … Alopecurus japonicus” value in the test on Alopecurus japonicus is reported as 5 (Level 5: growth control rate is above 85%). For the same molecule, the “Weeding effect … Eleusine indica” value in the test with Eleusine indica is recorded as 5 (Level 5: growth control rate is above 85%). The “Weeding effect … Setaria viridis” value in the test with Setaria viridis is reported as 5 (Level 5: growth control rate is above 85%). For the same molecule, the “Weeding effect … Digitaria sanguinalis” value in the test with Digitaria sanguinalis is 5 (Level 5: growth control rate is above 85%). Also, the “Weeding effect … Abutilon theophrasti” value with Abutilon theophrasti is listed as 5 (Level 5: growth control rate is above 85%).
Turning to `CCCCCOC(=O)[C@@H](C)O/N=C/c1cc(-n2c(=O)cc(C(F)(F)F)n(C)c2=O)c(F)cc1Cl` [203(R)], the “Weeding effect … Echinochloa crusgalli” value in the test on Echinochloa crusgalli is on record as 5 (Level 5: growth control rate is above 85%). Also, the “Weeding effect … Alopecurus japonicus” value with Alopecurus japonicus was 5 (Level 5: growth control rate is above 85%). The “Weeding effect … Eleusine indica” value in the test with Eleusine indica is 5 (Level 5: growth control rate is above 85%). In the test on Setaria viridis, the “Weeding effect … Setaria viridis” value is given as 5 (Level 5: growth control rate is above 85%). For the same molecule, the “Weeding effect … Digitaria sanguinalis” value in the test with Digitaria sanguinalis is 5 (Level 5: growth control rate is above 85%). Also, the “Weeding effect … Abutilon theophrasti” value in the test on Abutilon theophrasti is 5 (Level 5: growth control rate is above 85%).

Source of the values: US20230111310A1, “CARBOXYLIC ACID DERIVATIVE-SUBSTITUTED IMINO ARYL COMPOUND, PREPARATION METHOD THEREFOR, HERBICIDAL COMPOSITION AND USE THEREOF” (Qingdao Kingagroot Chemical Compound Co., Ltd., priority 2020, published 2023).
